molecular target: T1, human CCR1 (Homo sapiens, UniProt P32246); assay: CCR1 binding protocol (SPA, [125I]-MIP-1α displacement); details: cell membrane expressing human CCR1, 0.1 nM [125I]-MIP-1α, 4 hours at ambient temperature; read-out: Relative potency (IC50)
T1 sequence (P32246 1-355): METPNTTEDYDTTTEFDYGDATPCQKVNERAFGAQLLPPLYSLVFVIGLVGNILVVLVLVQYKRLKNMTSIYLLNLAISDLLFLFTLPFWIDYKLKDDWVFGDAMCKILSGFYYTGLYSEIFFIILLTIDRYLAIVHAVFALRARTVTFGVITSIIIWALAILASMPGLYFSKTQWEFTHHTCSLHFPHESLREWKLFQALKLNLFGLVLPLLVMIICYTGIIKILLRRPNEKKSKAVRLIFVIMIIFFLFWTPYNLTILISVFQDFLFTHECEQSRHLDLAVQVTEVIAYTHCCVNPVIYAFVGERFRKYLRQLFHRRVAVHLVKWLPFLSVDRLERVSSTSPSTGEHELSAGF
Procedure, shortened: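 Human CCR1 membranes (0.5 μg/well) on SPA beads were incubated with compound and 0.1 nM [125I]-MIP-1α (final) for 4 h at ambient temperature. Buffer was Tris pH 7.4 with NaCl, KCl, MnCl and 0.1% BSA. IC50 came from ½-log compound dilutions (10 mM top DMSO stock) by displacement of bound radioligand.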

Compound	IC50 [nM]
CN1C(=O)COc2ccc(NC(=O)N3CCC[C@@H]3c3oncc3Cc3ccc(Cl)cc3)cc21 [Compound 3]	50 to 500
Cc1nnc([C@H]2CCCN2C(=C[N+](=O)[O-])Nc2ccc(C(F)(F)F)cc2)n1Cc1ccc(Cl)cc1 [Compound 257]	500 to 5000
Cc1nnc([C@H]2CCCN2C(=O)Nc2cncnc2)n1Cc1ccc(Cl)cc1 [Compound 250]	500 to 5000
Cc1nnc([C@H]2CCCN2C(=O)N[C@H]2CCOc3cc(C(F)(F)F)ccc32)n1[C@@H](C)c1ccc(Cl)cc1 [Compound 337]	50 to 500
Cc1nnc([C@H]2CCCN2C(=O)Nc2ccccc2S(C)(=O)=O)n1Cc1ccc(Cl)cc1 [Compound 378]	50 to 500
N#Cc1ccc2c(c1)OCCC2NC(=O)N1CCC[C@@H]1c1ncnn1Cc1ccc(Cl)cc1 (some centres unmarked) [Compound 72]	50 to 500
Cc1nc([C@H]2CCCN2C(=O)Nc2c(C)cc(C(F)(F)F)cc2C)n(Cc2ccc(Cl)cc2)n1 [Compound 94]	50 to 500
Cc1nnc([C@H]2CCCN2C(=O)C(C)c2cccc(Cl)c2)n1Cc1ccc(Cl)cc1 (some centres unmarked) [Compound 508]	50 to 500
Cc1nnc(C2C3CC3CN2C(=O)Nc2ccc(Cl)cc2F)n1Cc1ccc(Cl)cc1 (centres unmarked) [Compound 545]	50 to 500
Cc1nnc([C@H]2CCCN2C(=O)N[C@H]2CCOc3cc(C(F)(F)F)ccc32)n1Cc1ccc(Cl)nc1 [Compound 382]	50 to 500
CCc1nnc([C@H]2CCCN2C(=O)NCc2ccc(C(F)(F)F)cc2)n1Cc1ccc(Cl)cc1 [Compound 311]	50 to 500
O=C(Nc1ccc(SC(F)(F)F)cc1)N1CCC[C@@H]1c1nccn1Cc1ccc(Cl)cc1 [Compound 40]	50 to 500
Cc1cc(C)c(C(=O)O)cc1NC(=O)N1CCC[C@@H]1c1nnc(C)n1Cc1ccc(Cl)cc1 [Compound 346]	50 to 500
Cc1noc(C)c1NC(=O)N1C[C@H](O)C[C@@H]1c1nnc(C)n1Cc1ccc(Cl)cc1 [Compound 447]	50 to 500
CNC(=O)c1cccc(NC(=O)N2CCC[C@@H]2c2nnc(C)n2Cc2ccc(Cl)cc2)c1C [Compound 231]	50 to 500
CN1C(=O)COc2ccc(NC(=O)N3CCC[C@@H]3c3ncnn3Cc3ccc(Cl)cc3)cc21 [Compound 99]	50 to 500
CC[C@H](Nc1c(N2CCC[C@@H]2c2nnc(C)n2Cc2ccc(Cl)cc2)c(=O)c1=O)c1ccc(C(F)(F)F)cc1 [Compound 589]	50 to 500
Cc1nnc([C@H]2CCCN2C(=O)Nc2cc(S(C)(=O)=O)ccc2F)n1Cc1ccc(Cl)cc1 [Compound 376]	50 to 500
Cc1nnc([C@H]2C[C@@H](O)CN2C(=O)Nc2ccc(Cl)nc2Cl)n1Cc1ccc(Cl)cc1 [Compound 498]	50 to 500
Cc1nnc([C@H]2CCCN2C(=O)Nc2ccc(Cl)cc2F)n1Cc1ccc(Br)cc1 [Compound 534]	50 to 500
Cc1nnc([C@H]2CCCN2C(=O)Nc2ccc3c(c2)N(C)C(=O)CO3)n1Cc1ccc(Cl)cc1 [Compound 137]	50 to 500
Cc1nnc([C@H]2CCCN2C(=O)Nc2ccc3c(c2)N(C)C(=O)CO3)n1C1(c2ccc(Cl)cc2)CC1 [Compound 327]	50 to 500
Cc1nnc([C@H]2CCCN2C(=O)N[C@H]2CCOc3cccc(F)c32)n1Cc1ccc(Cl)cc1 [Compound 164]	50 to 500
Cc1nnc([C@H]2CCCN2C(=O)Nc2ccc(C(F)(F)F)cc2)n1Cc1ccc(Cl)cc1 [Compound 112]	50 to 500

Compound	IC50 [nM]
Cc1c(NC(=O)N2CCC[C@@H]2c2nnc(C)n2Cc2ccc(Cl)cc2)cccc1C(=O)O [Compound 242]	50 to 500
Cc1ncnc([C@H]2CCCN2C(=O)NC2(c3ccccc3)CC2)c1Cc1ccc(Cl)cc1 [Compound 26]	50 to 500
Cc1nnc([C@H]2CCCN2C(=O)Nc2ccc(Cl)cn2)n1Cc1ccc(Cl)cc1 [Compound 243]	50 to 500
Cc1nnc([C@H]2CCCN2C(=O)N[C@H]2CCCOc3ccccc32)n1Cc1ccc(Cl)cc1 [Compound 261]	50 to 500
Cc1nnc([C@H]2CCCN2C(=O)Nc2ccc(Cl)cc2F)n1Cc1ccc(Cl)nc1 [Compound 364]	500 to 5000
Cc1cc(NC(=O)N2CCC[C@@H]2c2nnc(C)n2Cc2ccc(Cl)cc2)nc(C)n1 [Compound 256]	500 to 5000
O=C(N[C@H]1CCOc2cc(C(F)(F)F)ccc21)N1CCC[C@@H]1c1ncncc1Cc1ccc(Cl)cc1 [Compound 24]	50 to 500
O=C(NCc1ccc(C(F)(F)F)cc1)N1CCC[C@@H]1c1ncncc1Cc1ccc(Cl)cc1 [Compound 25]	50 to 500
Cc1ccncc1NC(=O)N1CCC[C@@H]1c1nnc(C)n1Cc1ccc(Cl)cc1 [Compound 225]	50 to 500
Cn1cc(Cc2ccc(Cl)cc2)c([C@H]2CCCN2C(=O)Nc2ccc(C(F)(F)F)cc2)n1 [Compound 8]	50 to 500
Cc1nnc([C@H]2CCCN2C(=O)Cc2ccc(Cl)cc2F)n1Cc1ccc(Cl)cc1 [Compound 507]	50 to 500
Cn1ncc(-c2ccccc2)c1NC(=O)N1CCC[C@@H]1c1ncnn1Cc1ccc(Cl)cc1 [Compound 69]	50 to 500
Cc1nnc([C@H]2CCCN2/C(=N/C#N)NCc2ccc(C(F)(F)F)cc2)n1Cc1ccc(Cl)cc1 [Compound 377]	50 to 500
Cc1nnc([C@H]2CCCN2C(=O)Nc2ccc3c(c2)CC(C)O3)n1Cc1ccc(Cl)cc1 (some centres unmarked) [Compound 274]	50 to 500
Cc1nc(C(F)(F)F)ccc1NC(=O)N1CCC[C@@H]1c1nnc(C)n1Cc1ccc(F)cc1 [Compound 531]	50 to 500
Cc1nnc([C@H]2CCCN2C(=O)Nc2c(Cl)ncnc2N(C)C)n1Cc1ccc(Cl)cc1 [Compound 182]	< 50
Cc1nnc([C@H]2CCCN2c2c(N[C@H]3CCOc4cc(C(F)(F)F)ccc43)c(=O)c2=O)n1Cc1ccc(Cl)cc1 [Compound 530]	50 to 500
Cc1nc(C(F)(F)F)ccc1[C@H](C)NC(=O)N1CCC[C@@H]1c1nnc(C)n1Cc1ccc(Cl)cc1 [Compound 624]	< 50
Cc1nnc([C@H]2CCCN2C(=O)N[C@H]2CCOc3cc(C(F)(F)F)ccc32)n1[C@H](C)c1ccc(Cl)cc1 [Compound 353]	50 to 500
Cc1noc(C)c1CC(=O)N1CCC[C@@H]1c1nncn1Cc1ccc(Cl)cc1 [Compound 629]	50 to 500
Cc1cc(Cl)ccc1NC(=O)N1CCC[C@@H]1c1nnc(C)n1Cc1ccc(Cl)cc1 [Compound 409]	< 50
Cc1nnc([C@H]2CCCN2C(=O)N[C@H]2CCOc3cc(C(F)(F)F)ccc32)n1C1(c2ccc(Cl)cc2)CC1 [Compound 328]	50 to 500
Cc1nnc([C@H]2C[C@H](O)CN2C(=O)N[C@H]2CCOc3cc(C#N)ccc32)n1Cc1ccc(Cl)cc1 [Compound 523]	< 50

Continued, values first:

IC50 [nM]	Compound
< 50	Cc1nnc([C@H]2CCCN2C(=O)Nc2ccc(Cl)cc2S(C)(=O)=O)n1Cc1ccc(Cl)cc1 [Compound 434]
< 50	Cc1ncncc1NC(=O)N1CCC[C@@H]1c1nnc(C)n1Cc1ccc(Cl)cc1 [Compound 348]
< 50	Cc1cc(C(F)(F)F)cc(C)c1NC(=O)N1CCC[C@@H]1c1nncn1Cc1ccc(Cl)cc1 [Compound 101]
< 50	N#Cc1ccc2c(c1)OCC[C@H]2NC(=O)N1CCC[C@@H]1c1nnc(CO)n1Cc1ccc(Cl)cc1 [Compound 340]
< 50	Cc1onc(-c2ccccc2)c1NC(=O)N1CCC[C@@H]1c1ncncc1Cc1ccc(Cl)cc1 [Compound 15]
< 50	C[C@H](NC(=O)N1CCC[C@@H]1c1nnc(CO)n1Cc1ccc(Cl)cc1)c1ccc(Cl)cc1 [Compound 402]
< 50	N#Cc1ccc2c(c1)OCC[C@@H]2NC(=O)N1CCC[C@@H]1c1nnc(CO)n1Cc1ccc(Cl)cc1 [Compound 338]
< 50	Cc1cc(C)c(S(=O)(=O)N(C)C)cc1NC(=O)N1CCC[C@@H]1c1nnc(C)n1Cc1ccc(Cl)cc1 [Compound 483]
< 50	COC(=O)c1cccc(C)c1NC(=O)N1CCC[C@@H]1c1nnc(C)n1Cc1ccc(Cl)cc1 [Compound 217]
< 50	CC[C@H](NC(=O)N1CCC[C@@H]1c1nncn1Cc1ccc(Cl)cc1)c1c(C)cc(C(F)(F)F)cc1C [Compound 120]
< 50	O=C(Nc1ccc(C(F)(F)F)cc1)N1CCC[C@@H]1c1ncnn1Cc1ccc(Cl)cc1 [Compound 64]
< 50	Cc1nnc([C@H]2CCCN2C(=O)NC2(c3ccccc3)CC2)n1Cc1ccc(Cl)c(Cl)c1 [Compound 412]
< 50	Cc1cc(C(F)(F)F)cc(Br)c1NC(=O)N1CCC[C@@H]1c1ncnn1Cc1ccc(Cl)cc1 [Compound 61]
< 50	Cc1nnc([C@H]2CCCN2C(=S)Nc2ccc(C(F)(F)F)cc2)n1Cc1ccc(Cl)cc1 [Compound 608]
< 50	COC(=O)c1ccc(Cl)c(NC(=O)N2CCC[C@@H]2c2nnc(C)n2Cc2ccc(Cl)cc2)c1 [Compound 286]
< 50	Cc1nnc([C@H]2CCCN2C(=O)N[C@H]2CCOc3c(F)cc(F)cc32)n1Cc1ccc(Cl)cc1 [Compound 153]
< 50	C[C@H](NC(=O)N1CCC[C@@H]1c1ncnn1Cc1ccc(Cl)cc1)c1cc2ccccc2o1 [Compound 81]
< 50	O=C(NCc1ccc(C(F)(F)F)cc1)N1CCC[C@@H]1c1nnc(Cl)n1Cc1ccc(Cl)cc1 [Compound 205]
< 50	O=C(N[C@H]1CCOc2cc(C(F)(F)F)ccc21)N1CCC[C@@H]1c1nnnn1Cc1ccc(Cl)cc1 [Compound 55]
< 50	Cc1nnc([C@H]2CCCN2C(=O)Cc2cc(C(F)(F)F)ccc2Cl)n1Cc1ccc(Cl)cc1 [Compound 511]
< 50	Cc1nnc([C@H]2CCCN2C(=O)N[C@@H](C)c2ccc(Cl)cc2)n1Cc1ccc(Cl)cc1 [Compound 170]

Source: patent US8288371B2, “Ortho pyrrolidine, benzyl-substituted heterocycle CCR1 antagonists for autoimmune diseases and inflammation” (Pharmacopeia, LLC, priority 2007, dated 2012)
